Data reported in article PMC8645336, “Benchmarking a highly selective USP30 inhibitor for enhancement of mitophagy and pexophagy” (Life Science Alliance, 2021).

Assays:
Assay in all cases: biochemical
Set-up in all cases: Ubiquigent DUB profiler selectivity panel, remaining enzyme activity as % of control
Settings in all cases: read-out: % of control remaining
OTUD1 = target: T1, OTUD1 (Homo sapiens, UniProt Q5VV17)
T1 sequence (Q5VV17 1-481): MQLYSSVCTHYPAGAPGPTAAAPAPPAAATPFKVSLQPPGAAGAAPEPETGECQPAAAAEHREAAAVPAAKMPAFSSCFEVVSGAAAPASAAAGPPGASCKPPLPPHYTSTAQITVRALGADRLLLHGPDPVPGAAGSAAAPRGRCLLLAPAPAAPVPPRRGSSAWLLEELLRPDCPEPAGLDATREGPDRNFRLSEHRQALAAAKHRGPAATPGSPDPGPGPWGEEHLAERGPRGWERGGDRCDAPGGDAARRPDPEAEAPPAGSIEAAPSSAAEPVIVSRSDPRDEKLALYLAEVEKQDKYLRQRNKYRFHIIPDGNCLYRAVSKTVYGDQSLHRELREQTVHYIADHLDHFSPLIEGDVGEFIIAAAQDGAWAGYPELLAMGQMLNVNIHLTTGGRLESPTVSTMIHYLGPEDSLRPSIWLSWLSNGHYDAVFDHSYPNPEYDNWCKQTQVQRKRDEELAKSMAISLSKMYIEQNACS
Outline: (§1)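 In YFP-PRKN-overexpressing hTERT-RPE1 cells, 1 h antimycin A plus oligomycin A (1 μM each) with CMPD-39, then Western blot of TOMM20 ubiquitylation. Target engagement: 2 h compound, then 10 min HA-Ub-PA at 37°C, read as USP30 shift. DUB panel (>40 enzymes) screened at 1-100 μM.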

USP12/UAF1/WDR20 = USP12/UAF1/WDR20 (Homo sapiens, UniProt O75317)
Outline: as §1

USP16 = USP16 (Homo sapiens, UniProt Q9Y5T5)
Outline: as §1

USP2 = target: T2, USP2 (Homo sapiens, UniProt O75604)
T2 sequence (O75604 1-605): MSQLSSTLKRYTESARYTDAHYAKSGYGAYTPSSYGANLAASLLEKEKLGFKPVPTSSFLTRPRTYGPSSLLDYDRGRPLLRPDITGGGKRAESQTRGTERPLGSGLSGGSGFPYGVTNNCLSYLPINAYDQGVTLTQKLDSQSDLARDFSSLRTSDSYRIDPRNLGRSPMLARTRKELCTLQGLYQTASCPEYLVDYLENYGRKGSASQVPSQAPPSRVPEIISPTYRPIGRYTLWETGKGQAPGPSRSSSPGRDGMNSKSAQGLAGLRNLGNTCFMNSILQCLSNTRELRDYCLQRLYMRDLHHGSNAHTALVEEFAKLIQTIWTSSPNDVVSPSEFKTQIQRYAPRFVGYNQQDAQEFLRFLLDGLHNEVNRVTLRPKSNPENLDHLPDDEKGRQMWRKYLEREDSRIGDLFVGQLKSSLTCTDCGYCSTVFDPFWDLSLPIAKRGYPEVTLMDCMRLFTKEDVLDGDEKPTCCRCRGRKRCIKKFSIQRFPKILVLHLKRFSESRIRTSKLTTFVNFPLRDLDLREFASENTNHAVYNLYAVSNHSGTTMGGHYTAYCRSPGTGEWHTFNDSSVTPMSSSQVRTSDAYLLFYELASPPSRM
Outline: as §1

USP27x = target: T3, USP27x (Homo sapiens, UniProt A6NNY8)
T3 sequence (A6NNY8 1-438): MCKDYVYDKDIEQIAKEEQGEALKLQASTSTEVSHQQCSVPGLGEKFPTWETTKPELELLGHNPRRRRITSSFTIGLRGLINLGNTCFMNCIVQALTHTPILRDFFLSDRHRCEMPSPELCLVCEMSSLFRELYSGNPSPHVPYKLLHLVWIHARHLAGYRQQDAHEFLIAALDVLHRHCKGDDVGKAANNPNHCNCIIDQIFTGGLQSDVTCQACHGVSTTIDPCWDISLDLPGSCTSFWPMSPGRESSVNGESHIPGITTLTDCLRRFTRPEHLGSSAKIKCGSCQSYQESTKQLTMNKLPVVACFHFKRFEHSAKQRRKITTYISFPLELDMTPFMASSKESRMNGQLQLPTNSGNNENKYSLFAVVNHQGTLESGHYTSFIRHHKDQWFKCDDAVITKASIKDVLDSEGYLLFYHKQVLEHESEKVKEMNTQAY
Outline: as §1

Chain of USP16 (Q9Y5T5 whole entry): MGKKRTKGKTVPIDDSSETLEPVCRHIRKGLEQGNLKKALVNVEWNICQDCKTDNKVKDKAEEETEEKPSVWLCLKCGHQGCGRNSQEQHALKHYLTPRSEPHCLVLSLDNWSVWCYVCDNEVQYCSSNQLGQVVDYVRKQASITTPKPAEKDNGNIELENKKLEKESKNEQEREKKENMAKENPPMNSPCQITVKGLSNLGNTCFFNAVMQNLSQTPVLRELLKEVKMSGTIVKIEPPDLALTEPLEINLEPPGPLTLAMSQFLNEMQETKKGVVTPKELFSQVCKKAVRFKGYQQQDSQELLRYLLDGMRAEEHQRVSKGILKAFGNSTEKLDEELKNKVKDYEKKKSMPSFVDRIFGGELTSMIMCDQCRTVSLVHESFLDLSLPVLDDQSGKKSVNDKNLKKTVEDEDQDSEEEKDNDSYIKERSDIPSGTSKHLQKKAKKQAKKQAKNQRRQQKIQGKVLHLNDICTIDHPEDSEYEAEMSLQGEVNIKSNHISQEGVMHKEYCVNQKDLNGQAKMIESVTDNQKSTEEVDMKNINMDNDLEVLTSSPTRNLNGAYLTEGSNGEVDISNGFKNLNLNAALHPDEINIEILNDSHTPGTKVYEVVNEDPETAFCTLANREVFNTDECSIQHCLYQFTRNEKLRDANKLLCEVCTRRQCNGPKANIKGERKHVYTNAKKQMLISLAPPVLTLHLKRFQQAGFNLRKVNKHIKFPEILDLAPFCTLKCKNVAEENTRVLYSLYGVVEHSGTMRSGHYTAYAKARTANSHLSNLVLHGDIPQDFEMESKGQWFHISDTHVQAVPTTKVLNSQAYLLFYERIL
Chain of USP12/UAF1/WDR20 (O75317 whole entry): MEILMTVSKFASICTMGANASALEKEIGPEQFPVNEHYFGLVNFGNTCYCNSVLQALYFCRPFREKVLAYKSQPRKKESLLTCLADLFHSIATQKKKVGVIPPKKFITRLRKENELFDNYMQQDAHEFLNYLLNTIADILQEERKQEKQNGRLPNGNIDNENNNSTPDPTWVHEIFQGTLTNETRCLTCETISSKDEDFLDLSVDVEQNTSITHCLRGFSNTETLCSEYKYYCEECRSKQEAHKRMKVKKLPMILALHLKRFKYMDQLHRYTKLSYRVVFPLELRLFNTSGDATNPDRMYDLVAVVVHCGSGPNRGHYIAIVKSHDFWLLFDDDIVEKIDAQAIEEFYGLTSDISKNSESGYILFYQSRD
Chain of USP12/UAF1/WDR20 (Q8TAF3 whole entry partner): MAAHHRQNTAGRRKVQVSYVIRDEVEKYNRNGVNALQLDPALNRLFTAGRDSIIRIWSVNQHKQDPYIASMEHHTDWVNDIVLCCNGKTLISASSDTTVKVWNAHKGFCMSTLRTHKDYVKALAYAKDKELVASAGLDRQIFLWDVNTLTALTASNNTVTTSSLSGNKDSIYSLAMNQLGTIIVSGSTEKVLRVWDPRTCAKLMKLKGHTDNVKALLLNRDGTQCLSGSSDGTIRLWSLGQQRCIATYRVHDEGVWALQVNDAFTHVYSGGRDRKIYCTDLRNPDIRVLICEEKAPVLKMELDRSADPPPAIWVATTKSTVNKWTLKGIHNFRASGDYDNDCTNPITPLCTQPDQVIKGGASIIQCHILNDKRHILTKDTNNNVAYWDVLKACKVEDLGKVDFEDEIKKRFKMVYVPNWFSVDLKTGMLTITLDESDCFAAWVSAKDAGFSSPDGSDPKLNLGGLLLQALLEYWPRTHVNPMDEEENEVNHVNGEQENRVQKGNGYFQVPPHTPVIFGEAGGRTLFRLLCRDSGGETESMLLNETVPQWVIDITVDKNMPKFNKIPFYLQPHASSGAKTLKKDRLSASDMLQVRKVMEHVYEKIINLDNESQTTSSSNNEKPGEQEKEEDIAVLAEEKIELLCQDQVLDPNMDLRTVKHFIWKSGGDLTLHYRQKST
Chain of USP12/UAF1/WDR20 (Q8TBZ3 whole entry partner): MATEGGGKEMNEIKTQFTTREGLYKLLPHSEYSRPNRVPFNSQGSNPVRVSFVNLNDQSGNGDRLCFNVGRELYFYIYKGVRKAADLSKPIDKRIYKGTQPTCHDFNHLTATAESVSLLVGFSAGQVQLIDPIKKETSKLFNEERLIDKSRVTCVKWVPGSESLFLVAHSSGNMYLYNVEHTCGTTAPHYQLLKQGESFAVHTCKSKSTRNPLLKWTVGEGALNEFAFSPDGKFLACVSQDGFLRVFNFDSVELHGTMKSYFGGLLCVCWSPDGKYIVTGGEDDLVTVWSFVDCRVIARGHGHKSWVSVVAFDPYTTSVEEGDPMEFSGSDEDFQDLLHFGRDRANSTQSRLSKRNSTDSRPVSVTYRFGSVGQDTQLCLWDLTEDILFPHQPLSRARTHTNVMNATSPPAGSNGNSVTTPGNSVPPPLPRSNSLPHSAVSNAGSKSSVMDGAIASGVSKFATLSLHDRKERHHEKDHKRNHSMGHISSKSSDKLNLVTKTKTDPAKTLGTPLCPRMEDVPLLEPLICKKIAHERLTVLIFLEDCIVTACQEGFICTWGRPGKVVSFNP

remaining activity at 1 µM (OTUD1): 99.9%
remaining activity at 10 µM (OTUD1): 93.4%
remaining activity at 100 µM (OTUD1): 98%
remaining activity at 1 µM (USP12/UAF1/WDR20): 114%
remaining activity at 10 µM (USP12/UAF1/WDR20): 106%
remaining activity at 100 µM (USP12/UAF1/WDR20): 104%
remaining activity at 1 µM (USP16): 111%
remaining activity at 10 µM (USP16): 100%
remaining activity at 100 µM (USP16): 104%
remaining activity at 1 µM (USP2): 107%
remaining activity at 10 µM (USP2): 97.7%
remaining activity at 100 µM (USP2): 101%
remaining activity at 1 µM (USP27x): 108%
remaining activity at 10 µM (USP27x): 93.8%
remaining activity at 100 µM (USP27x): 93.4%
Compound: CC(C)(C)NS(=O)(=O)c1ccc(NC(=O)[C@H](Cc2ccccc2)NC(=O)c2ccc(F)cc2)cc1 [compound 39, CMPD-39]
